Laboratory results: US20220241416A1, “METHODS FOR THE IDENTIFICATION OF SARM1 NADASE ACTIVITY INHIBITORS AND USES THEREOF” (Bar Ilan University, priority 2021, published 2022)
Entries after “also recorded” stand apart in the source; their conditions may differ. Like-named read-outs stand apart in the source and are kept apart here.

Tests used:
hSARM1 [1] = target: T1, hSARM1 (Homo sapiens, UniProt Q6SZW1); assay: HPLC analysis of time dependent NAD+ consumption by hSARM1; type: biochemical; settings: 2 mM NAD+ versus 50 μM; porcine brain NADase control not inhibited
T1 construct: hSARM1w.t; (26ERL . . . GPT724) that was not mutated in E642, was also expressed and isolated; 6xHis (N); TEV cleavage site (N); made in house; host or cells: HEK293F suspension cells
T1 sequence (Q6SZW1 with tags, fused parts or gaps): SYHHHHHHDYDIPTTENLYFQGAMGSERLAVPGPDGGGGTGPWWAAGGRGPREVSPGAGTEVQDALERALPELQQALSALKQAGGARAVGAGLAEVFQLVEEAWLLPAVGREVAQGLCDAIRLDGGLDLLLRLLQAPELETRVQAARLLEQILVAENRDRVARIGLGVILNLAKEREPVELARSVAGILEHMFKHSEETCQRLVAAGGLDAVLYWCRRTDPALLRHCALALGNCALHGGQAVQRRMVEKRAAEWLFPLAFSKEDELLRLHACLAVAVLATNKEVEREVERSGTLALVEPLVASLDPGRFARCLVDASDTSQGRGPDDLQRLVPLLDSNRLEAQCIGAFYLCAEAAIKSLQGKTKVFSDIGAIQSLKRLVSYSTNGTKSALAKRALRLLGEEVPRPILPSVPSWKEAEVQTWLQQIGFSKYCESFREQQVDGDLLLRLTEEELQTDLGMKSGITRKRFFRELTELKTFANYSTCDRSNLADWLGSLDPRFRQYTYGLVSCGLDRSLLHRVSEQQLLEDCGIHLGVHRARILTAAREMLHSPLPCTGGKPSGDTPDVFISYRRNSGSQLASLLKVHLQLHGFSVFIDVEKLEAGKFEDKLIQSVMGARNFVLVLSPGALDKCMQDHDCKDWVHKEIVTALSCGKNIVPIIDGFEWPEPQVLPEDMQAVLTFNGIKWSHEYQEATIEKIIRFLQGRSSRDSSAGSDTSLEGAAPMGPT
Procedure: Purified hSARM1w.t. was first diluted to 800 nM in 25 mM HEPES pH 7.5, 150 mM NaCl, and then mixed in 37° C. with different concentrations of NAD+(in the same buffer) in a 1:1 v/v ratio and incubated for 0, 5 and 30 min. 1:100 (v/v). BSA (NEB Inc. 20 mg/ml) was included, and reactions were stopped by heating at 95° C. for 2 minutes. Where specified, NMN (Sigma-Aldrich-N3501) was added in different concentrations. For control, NAD+ consumption was compared to a commercially available porcine brain NADase 0.025 units/ml (Sigma-Aldrich-N9879).
HPLC measurements were performed using a Merck Hitachi Elite LaChrom HPLC system equipped with an autosampler, UV detector and quaternary pump. HPLC traces were monitored at 260 nm and integrated using EZChrom Elite software. 10 μL of each sample were injected onto a Waters Spherisorb ODS1 C18 RP HPLC Column (5 μm particle size, 4.6 mm×150 mm ID). HPLC solvents are: A: 100% methanol; B: 120 mM sodium phosphate pH 6.0; C double-distilled water (DDW). The column was pre-equilibrated with B:C mixture ratio of 80:20. Chromatography was performed at room temperature with a flow rate of 1.5 ml/min. Each analysis cycle was 12 min long as follows (A:B:C, v/v): fixed 0:80:20 0-4 min; gradient to 20:80:0 4-6 min; fixed 20:80:0 from 6-9 min. gradient to 0:80:20 from 9-10 min; fixed 0:80:20 from 10-12 min. The NAD+ hydrolysis product ADPR was eluted at the isocratic stage of the chromatography while NAD+ elutes in the methanol gradient stage.

hSARM1 [2] = target: T1, hSARM1; assay: Kinetic parameters of hSARM1, substrate inhibition fit; type: biochemical
Procedure: FIG. 14C. […] The kinetic parameters were determined from plots of reaction velocity of NAD+ consumption versus substrate (NAD+) concentration and then fitted to the Michaelis-Menten equation (Km and Vmax) or substrate inhibition equation (Ki) using non-linear curve fit in GraphPad Prism. Kcat was calculated by dividing the Vmax with protein molar concentration.
For Vmax and Km determination, the NADase activity assay was performed with several different NAD+ substrate concentrations and sampled in constant time points. For each NAD+ concentration, linear increase zone was taken for slope (V0) calculation. All data were than fitted to the Michaelis-Menten equation using non-linear curve fit in GraphPad Prism software. Kcat was calculated by dividing the Vmax with protein molar concentration.

SMILES: NC(=O)c1ccc[n+]([C@@H]2O[C@H](COP(=O)([O-])OP(=O)(O)OC[C@H]3O[C@@H](n4cnc5c(N)ncnc54)[C@H](O)[C@@H]3O)[C@@H](O)[C@H]2O)c1 [NAD+, Nicotinamide adenine dinucleotide]
- substrate inhibition of hSARM1 NAD+ hydrolysis (hSARM1 [1]): clearly inhibited; also recorded: tightly inhibited
- Ki (hSARM1 [2]; apparent inhibition by substrate, read-out: Ki for NAD+, hSARM1): 727 µM
- Ki (hSARM1 [2]; substrate inhibition equation, read-out: Ki, inhibition by the substrate NAD+, hSARM1): 700 µM
